Reference: patent US20050163879A1, “Composition for preventing or treating dementia comprising a hydroxycinnamic acid derivative or an extract of a plant of genus Angelicae containing same” (Scigenic Co. Ltd. Biosynergen, Inc., priority 1999, published 2005)

Assays:
[1] = tested on: mice administered with β-amyloid (1-42); assay: Passive avoidance test in mice injected with β-amyloid (1-42) into the cerebral ventricle; assay type: in vivo, mouse; settings: for dementia-preventive effect in passive avoidance test: FIGS. 7A and 7B
Method: (§1) The administration of β-amyloid (1-42) to a mouse was carried out in accordance with the method described by Laursen & Belknap (J. Pharmacol. Methods, 16, 355-357 (1986)). Specifically, 5 μl of phosphate-buffered saline containing 1.85 μg of β-amyloid (1-42) was put in a 50 μl Hamilton syringe fitted with a 26 gauge needle, the tip of the needle was inserted into the bregma of the mouse and then the β-amyloid (1-42) solution was administered thereto. Each mouse of a control group received an equal amount of β-amyloid (42-1) in place of β-amyloid (1-42). A passive avoidance test was carried out at days 1-2 (day 1: training, day 2: test) and a Y-maze test, at days 3-4 (day 3: training, day 4: test) after the administration.
In order to examine the learning and memory-retention ability of a mouse, a passive avoidance test was carried out in accordance with the method described in Song et al., J. Neurochem., 71, 875-878 (1998), as follows.
A passive avoidance case equipped with a light room and a dark room was prepared, the floor of the dark room being designed to deliver an electrical shock to a test animal. First, a mouse was put in the light room and, upon entering the dark room, it received an electrical shock at 0.25 mA for 1 sec. Twenty-four hours after the training, the mouse was put in the light room again and the time it took to enter the dark room was measured as a passive avoidance time. The maximum time was set at 300 sec., i.e., in case when the mouse took more than 300 sec. to enter the dark room, the passive avoidance time was determined to be 300 sec.
Forty 4- to 5-week old mice each weighing 20 to 25 g were divided into four groups of equal number. The Angelicae gigas Nakai extract prepared in Example 1 was dissolved in water to concentrations of 0.08% (w/v) and 0.1% (w/v), respectively, […] the solution/mouse. The mice of the other two groups were provided with normal drinking water for 4 weeks. Thereafter, the mice of one of the two normal drinking water groups were administered into their cerebral ventricle with 1.85 μg of β-amyloid (42-1) (“control group”) and the mice of the remaining three groups, with β-amyloid (1-42) (Aβ1-42), as in Reference Example 1. Then, a passive avoidance test was carried out for each group of mice as in Reference Example 2 and the data attained were averaged for each group.
Fifty 4- to 5-week old mice each weighing 20 to 25 g were divided into five groups by equal number. Ferulic acid was dissolved in water to concentrations of 0.002% (w/v), 0.004% (w/v) and 0.006% (w/v), respectively, […] the solution/mouse. The mice of the other two groups were provided with normal drinking water for 4 weeks. Thereafter, the mice of one of two normal drinking water groups were administered into their cerebral ventricle with 1.85 μg of β-amyloid (42-1) (“control group”) and the mice of the remaining four groups, with β-amyloid (1-42)(Aβ1-42), as in Reference Example 1. Then, a passive avoidance test was carried out for each group of mice as in Reference Example 2 and the data attained were averaged for each group.
Forty 4- to 5-week old mice each weighing 20 to 25 g were divided into four groups of equal number. Decursinol was dissolved in corn oil, mixed with a mouse fodder, and the mice of two groups were provided with the resulting fodder for 4 weeks at a daily dose of 7.5 mg decursinol/kg or 15 mg decursinol/kg. […]

[2] = tested on: mice administered with β-amyloid (1-42); assay: Y-maze test in mice injected with β-amyloid (1-42) into the cerebral ventricle; assay type: in vivo, mouse; settings: for alternation behavior (%): compared with β-amyloid (1-42) only group
Method: as §1
Spontaneous alternation behavior of a mouse was examined by a Y-maze test in accordance with the method described in Starter et al., Psychopharmacology, 94, 491-495 (1988) as follows.
The Y-maze consisted of three arms shaped like Y. A test mouse was placed in one of the arms such that it faced the arm's terminal and allowed to roan freely through the three arms for […]. The number of alternation was determined by counting the number of occasions the mouse passed the three arms consecutively. Spontaneous alternation behavior was determined as the percentage of the alternation number based on the total number of arm entries.
Further, Y-maze tests were carried out employing the above-prepared mice as in Reference Example 3.
Forty 4- to 5-week old mice each weighing 20 to 25 g were divided into four groups of equal number. Decursinol was dissolved in corn oil, mixed with a mouse fodder, and the mice of two groups were provided with the resulting fodder for 4 weeks at a daily dose of 7.5 mg decursinol/kg or 15 mg decursinol/kg. The mice of the other two groups were provided with a normal mouse fodder containing an equal amount of corn oil as above for 4 weeks. Thereafter, the mice of one of the two normal fodder groups were administered, into their cerebral ventricle, with 1.85 μg of β-amyloid (42-1) (“control group”) and the mice of the remaining three groups, with β-amyloid (1-42) (Aβ1-42), as in Reference Example 1. Then, a passive avoidance test and a Y-maze test were carried out for each group of mice as in Reference Examples 2 and 3, respectively, and the data attained were averaged for each group.

OX-42 = assay: Immunohistochemical staining of OX-42 in pyriform cortex and amygdaloid nucleus one day after β-amyloid; assay type: in vivo, mouse; settings: 0.006% (w/v) ferulic acid in drinking water for 4 weeks, then β-amyloid (1-42); 1 day after; vs β-amyloid (1-42) only; FIGS. 8c and 8f
Method: 4- to 5-week old mice each weighing 20 to 25 g was divided into three groups. Ferulic acid was dissolved in water to a concentration of 0.006% (w/v), and the mice of one group were provided with the resulting solution instead of water for 4 weeks. The mice of other two groups were provided with normal drinking water for 4 weeks. Thereafter, the mice of one of two normal drinking water groups were administered, into their cerebral ventricle, with 1.85 μg of β-amyloid (42-1) (“control group”) and the mice of the remaining two groups, with β-amyloid (1-42) (β1-42), as in Reference Example 1.
One day after the administration of β-amyloid, each of the mice was anesthetized with sodium pentobarbital and its abdomen was incised. The mouse was fixed by passing 4% paraformaldehyde through its left ventricle and its brain was excised.
In accordance with the method described in Cho et al., J. Comp. Neurol., 369: 264-276 (1996), a section was prepared from the excised brain and immunohistochemical staining was carried out in order to stain […] in the pyriform cortex and the amygdaloid nucleus by employing 1:500 dilution of anti-OX-42 antibody (Halan (Sera-Lab)).

[3] = tested on: choline acetyltransferase (ChAT); assay: Immunohistochemical staining of ChAT in septal nucleus 5 days after β-amyloid; assay type: in vivo, mouse; settings: 0.006% (w/v) ferulic acid for 4 weeks, then β-amyloid (1-42), vs β-amyloid (1-42) only, FIG. 9c
Method: Three groups of mice were administered with ferulic acid and/or β-amyloid in accordance with the method of (1). 5 days after the administration of β-amyloid, immunohistochemical staining was carried out according to the method of (1) except for employing 1:750 dilution of anti-choline-acetyltransferase (ChAT) antibody (Chemicon) in order to stain CHAT, an enzyme for acetylcholine synthesis, in the septal nucleus wherein acetylcholine neurons are distributed.

mouse cerebral neurons = assay: β-amyloid (1-42)-induced leakage of lactate dehydrogenase (LDH) from primary mouse cortical culture; assay type: cell-based; settings: 100 μM ferulic acid 30 minutes before 25 μM β-amyloid (1-42); 24 and 48 hours; vs β-amyloid (1-42) group; FIG. 10
Method: In accordance with the method of Wie et al. (Neurosci. Lett., 225: 93-96 (1997)), glia was cultured from cells of the cerebral cortex of a mouse and neurons of mouse cerebrum were cultured by employing the glia as a substrate.
The culture of mouse cerebral neurons was divided into three groups. Neurons of one group received no treatment (control group). Neurons of the other two groups were treated with 25 μM of β-amyloid (1-42), and one of these two groups were treated with 100 μM of ferulic acid 30 minutes before the administration of β-amyloid (1-42).
The degree of damage in neurons was determined by measuring the concentration of lactate dehydrogenase (LDH), which was released from the damaged or disrupted neurons into the culture medium, in accordance with the method of Wie et al. Samples of the culture medium were taken at 24 and 48 hours after the administration of β-amyloid (1-42), respectively, and their LDH concentrations were measured with a microplate reader.

Row | SMILES | passive avoidance response time ([1]; 0.006& (w/v) ferulic acid for 1, 2, 3 and 4 weeks, FIG. 3B) | decrease in passive avoidance response time ([1]; ferulic acid 0.002%, 0.004% and 0.006% (w/v) in drinking water for 4 weeks before Aβ1-42, FIG. 3A) | dementia-preventive effect in passive avoidance test ([1]; ferulic acid alone, low amount: 0.002% (w/v) or 0.003% (w/v)) | number of arm entries (measure of spontaneous movement) ([2]; ferulic acid, period of administration varied, FIG. 4B) | alternation behavior (%) ([2]; ferulic acid, period of administration varied, FIG. 4A) | OX-42 staining in pyriform cortex and amygdaloid nucleus (OX-42) | ChAT staining in septal nucleus [3] | LDH concentration in culture medium (mouse cerebral neurons) | dementia-preventive effect in passive avoidance test ([1]; decursinol alone, low amount: 2 mg/kg or 3 mg/kg) | decrease in passive avoidance response time due to β-amyloid (1-42) ([1]; decursinol in fodder, 7.5 mg/kg or 15 mg/kg daily for 4 weeks, FIG. 6A) | number of arm entries (measure of spontaneous movement) ([2]; decursinol 7.5 mg/kg or 15 mg/kg daily for 4 weeks, FIG. 6C) | alternation behavior (%) ([2]; decursinol 7.5 mg/kg or 15 mg/kg daily for 4 weeks, FIG. 6B)
1 | COc1cc(/C=C/C(=O)O)ccc1O [ferulic acid] | becomes increasingly higher with the period of administration | prevented dose-dependently | no dementia-preventive effect | nearly the same for all groups | higher and increased in proportion to the period of administration | much less pronounced | the decrease was suppressed | much lower | – | – | – | –
2 | CC1(C)Oc2cc3oc(=O)ccc3cc2C[C@@H]1O [decursinol] | – | – | – | – | – | – | – | – | no dementia-preventive effect | prevented | nearly the same for all groups | higher and increased dose-dependently
